For series [1], the target named is T1, CYP2C8 (Homo sapiens, UniProt P10632).
T1 sequence (P10632 1-490): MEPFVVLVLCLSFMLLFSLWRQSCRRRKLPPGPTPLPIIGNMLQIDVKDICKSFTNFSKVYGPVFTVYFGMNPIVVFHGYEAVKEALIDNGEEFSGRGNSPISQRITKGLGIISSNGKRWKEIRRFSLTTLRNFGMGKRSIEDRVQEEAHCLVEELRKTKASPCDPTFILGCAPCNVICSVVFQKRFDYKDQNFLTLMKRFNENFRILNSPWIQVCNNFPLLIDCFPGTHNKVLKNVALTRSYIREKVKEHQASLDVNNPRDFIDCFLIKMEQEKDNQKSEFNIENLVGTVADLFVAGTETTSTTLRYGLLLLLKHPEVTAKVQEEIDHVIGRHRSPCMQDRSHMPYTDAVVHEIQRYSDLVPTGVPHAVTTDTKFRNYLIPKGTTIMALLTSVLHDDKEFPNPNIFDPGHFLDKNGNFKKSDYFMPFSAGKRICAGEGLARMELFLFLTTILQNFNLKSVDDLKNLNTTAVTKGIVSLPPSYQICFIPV
Description: In vitro metabolism of pemigatinib by recombinant human CYP2C8. The format is in vitro ADME. As for the experimental part:
(§1) In vitro metabolism studies were conducted to determine the human cytochrome P450 (CYP) isozyme(s) capable of metabolizing pemigatinib.
(§2) In vitro metabolism studies were conducted to determine the individual human recombinant CYP isozymes capable of metabolizing pemigatinib (1 μM) and included CYP1A2, CYP2B6, CYP2C8, CYP2C9, CYP2C19, CYP2D6, or CYP3A4.

The nature of series [2]: clinical. The note with it: human, plasma.
The target in series [3] is CYP2C9 (Homo sapiens, UniProt P11712). Put plainly: In vitro metabolism of pemigatinib by recombinant human CYP2C9. The class given is in vitro ADME. As for the experimental part: as §1, §2
Chain of CYP2C9 (P11712 whole entry): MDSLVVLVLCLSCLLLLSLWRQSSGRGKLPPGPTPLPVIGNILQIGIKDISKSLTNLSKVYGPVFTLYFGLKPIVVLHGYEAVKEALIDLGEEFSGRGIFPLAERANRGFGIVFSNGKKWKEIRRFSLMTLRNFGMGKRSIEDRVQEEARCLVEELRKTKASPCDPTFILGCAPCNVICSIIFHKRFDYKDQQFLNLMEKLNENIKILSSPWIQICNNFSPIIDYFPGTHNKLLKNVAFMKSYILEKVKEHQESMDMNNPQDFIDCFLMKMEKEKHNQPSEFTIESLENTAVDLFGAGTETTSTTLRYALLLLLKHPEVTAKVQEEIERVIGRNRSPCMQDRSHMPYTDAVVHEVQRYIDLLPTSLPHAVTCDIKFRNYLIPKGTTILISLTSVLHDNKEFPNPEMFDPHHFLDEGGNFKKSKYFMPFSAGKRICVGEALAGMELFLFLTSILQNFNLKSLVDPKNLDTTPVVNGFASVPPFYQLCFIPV

Results on one compound are retold here after US11628162B2, “Methods of treating cancer with an FGFR inhibitor” (Incyte Corporation, priority 2019, dated 2023).

Molecules are shown by their SMILES.

For orientation: AUC(0-inf) means the area under the concentration-time curve extrapolated to infinity. A word on the Cmax: it is the maximum level reached in the sampled fluid or tissue. Usually Tmax stands for the time at which the peak concentration occurs. By Vd/F is commonly meant the volume of distribution divided by bioavailability. As usually defined, the half-life is how long it takes for the measured level to halve. Read a low half-life as rapid decline. For orientation: AUC means concentration integrated over time.

As to `CCN1C(=O)N(c2c(F)c(OC)cc(OC)c2F)Cc2cnc3[nH]c(CN4CCOCC4)cc3c21` [Pemigatinib, 3-(2,6-difluoro-3,5-dimethoxyphenyl)-1-ethyl-8-(morpholin-4-ylmethyl)-1,3,4,7-tetrahydro-2H-pyrrolo[3′,2′: 5,6]pyrido[4,3-d]pyrimidin-2-one], the “Extent of in vitro metabolism by CYP2C8 (in words)” value in series [1] is “negligible”. In series [1] (recombinant CYP2C8, pemigatinib 1 μM, 30 min), the “Average Percent (N = 2) of Pemigatinib Remaining vs Control (30 mins)” value was found to be 94%. For the same compound, in series [2] (oral, 4.5 mg), the AUC0-t came out at 0.674 ± 0.246 µM·h, the AUC(0-inf) is 0.712 ± 0.252 µM·h, the highest concentration (Cmax) worked out at 55.2 nM and the time to peak (Tmax) was 2 h. For the same compound, in series [2] (oral, 4.5 mg), the Vd/F was 244 ± 75.8 L and the half-life was 11.8 h. Also, in series [2] (oral, 13.5 mg), the AUC(0-inf) stood at 2.04 ± 0.556 µM·h, the Cmax is 176 nM, the Tmax came to 1.5 h and the Vd/F was found to be 267 ± 73.1 L. For the same compound, the half-life in series [2] (oral, 13.5 mg) is 12.7 h. In series [2] (po, 4.5 mg), this compound had an AUC of 0.672 µM·h and a Cmax of 60.1 ± 25.3 nM. This compound also came in with a Cmax in series [2] (po, 13.5 mg) of 187 ± 63.3 nM. The “Extent of in vitro metabolism by CYP2C9 (in words)” value in series [3] was “negligible”. The “Average Percent (N = 2) of Pemigatinib Remaining vs Control (30 mins)” value in series [3] (recombinant CYP2C9, pemigatinib 1 μM, 30 min) came out at 88%.
